Tests used:
[1] = tested on: microorganisms; experiment: Morphology, biofilm and growth disrupting peptides (Table 5); assay type: cell-based; parameters: key: A: Peptide aggregates; B: Less hyphal formation; Clumps; Diffuse clumps and small polyps; F: Diffuse growth; H: Thin; I: Growth inhibition; Microcolony formation; Rippled; Small polyps; Thick; W: Halo formation on top, microlonies on bottom
Source text: In certain embodiments peptides that induce alterations in phenotype or other biological activities can also be used as antimicrobial effector moieties.

[2] = tested on: microorganisms; experiment: Peptide activities: targeting/binding, antimicrobial, growth or phenotype altering (Tables 7, 8); assay type: cell-based; details: peptides having multiple activities

Substance | Organism, effect: E. coli ([1]; E. coli) | Organism, effect: E. faecalis ([1]; E. faecalis) | Organism, effect: MRSA ([1]; MRSA) | Organism, effect: S. epidermidis ([1]; S. epidermidis) | Activities [2] | Organism, effect: S. pneumoniae ([1]; S. pneumoniae) | Organism, effect: C. jejuni ([1]; C. jejuni) | Organism, effect: P. aeruginosa ([1]; P. aeruginosa) | Organism, effect ([1]; C. jejuni) | Organism, effect ([1]; E. faecalis) | Organism, effect ([1]; MRSA) | Organism, effect ([1]; S. epidermidis) | Organism, effect ([1]; S. pneumoniae) | Organism, effect ([1]; E. coli) | Organism, effect ([1]; P. aeruginosa)
PF-386: peptide having multiple activities (chain 1 FTLTLITTIVAILNYKDKKK; chain 2 FTLTLITTIVAILNYKDKKK; Peptide with targeting and/or antimicrobial activity) | E. coli (C) | E. faecalis (C) | MRSA (C) | S. epidermidis (C) | G B |  |  |  |  |  |  |  |  |  | 
PF-398: peptide having multiple activities (chain 1 ILVVLAGILLVVLSYVGISKFKMNC; chain 2 ILVVLAGILLVVLSYVGISKFKMNC; Peptide with targeting and/or antimicrobial activity) | E. coli (C) | E. faecalis (C) | MRSA (C) | S. epidermidis (C) | G B |  |  |  |  |  |  |  |  |  | 
PF-399: peptide having multiple activities (chain 1 FPIISALLGAIICIAIYSFIVNRKA; chain 2 FPIISALLGAIICIAIYSFIVNRKA; Peptide with targeting and/or antimicrobial activity) | E. coli (C) | E. faecalis (C) | MRSA (C) | S. epidermidis (C) | G B |  |  |  |  |  |  |  |  |  | 
PF-407: peptide having multiple activities (chain 1 KPKNKKEKTVISYEKLLSMY; chain 2 KPKNKKEKTVISYEKLLSMY; Peptide with targeting and/or antimicrobial activity) |  | E. faecalis (R) | MRSA (C) | S. epidermidis (M) | G B | S. pneumoniae (R) |  |  |  |  |  |  |  |  | 
PF-410: peptide having multiple activities (chain 1 FALELIALCRNLFIVYFP; chain 2 FALELIALCRNLFIVYFP; Peptide with targeting and/or antimicrobial activity) | E. coli (S) | E. faecalis (C) | MRSA (M) | S. epidermidis (C) | G B |  |  |  |  |  |  |  |  |  | 
PF-411: peptide having multiple activities (chain 1 WVAVAILLNIALQTQLT; chain 2 WVAVAILLNIALQTQLT; Peptide with targeting and/or antimicrobial activity) | E. coli (C) | E. faecalis (D) | MRSA (D) | S. epidermidis (C) | G B | S. pneumoniae (D) | C. jejuni (D) | P. aeruginosa (A) |  |  |  |  |  |  | 
PF-418: peptide having multiple activities (chain 1 FFLVHFYIRKRKGKVSIFLNYF; chain 2 FFLVHFYIRKRKGKVSIFLNYF; Peptide with targeting and/or antimicrobial activity) | E. coli (C) | E. faecalis (D) | MRSA (D) | S. epidermidis (M) | G B | S. pneumoniae (D) | C. jejuni (D) |  |  |  |  |  |  |  | 
PF-431: peptide having multiple activities (chain 1 VAYAAICWW; chain 2 VAYAAICWW; Peptide with targeting and/or antimicrobial activity) |  |  |  |  | G B |  |  |  | C. jejuni (R) | E. faecalis (R) | MRSA (C) | S. epidermidis (M) | S. pneumoniae (R) |  | 
PF-432: peptide having multiple activities (chain 1 FNGDSEFFLCIAF; chain 2 FNGDSEFFLCIAF; Peptide with targeting and/or antimicrobial activity) |  |  |  |  | G B |  |  |  | C. jejuni (D) | E. faecalis (D) | MRSA (M) | S. epidermidis (M) | S. pneumoniae (D) | E. coli (R) | P. aeruginosa (A)
PF-439: peptide having multiple activities (chain 1 RVLVLKKFHGIMDGNRNVAVFFVGQ; chain 2 RVLVLKKFHGIMDGNRNVAVFFVGQ; Peptide with targeting and/or antimicrobial activity) |  |  |  |  | G B |  |  |  |  | E. faecalis (C) | MRSA (M) | S. epidermidis (C) | S. pneumoniae (R) | E. coli (R) | 
PF-440: peptide having multiple activities (MFIISPDLFNIAVILYILFFIHDILLLILS; Peptide with targeting and/or antimicrobial activity) |  |  |  |  | G B |  |  |  |  | E. faecalis (C) | MRSA (C) | S. epidermidis (C) | S. pneumoniae (R) | E. coli (R) | 
PF-443: peptide having multiple activities (KLLYFFNYFENLQQVHLLVQL; Peptide with targeting and/or antimicrobial activity) |  |  |  |  | G B |  |  |  |  |  | MRSA (C) |  | S. pneumoniae (C) | E. coli (R) | 
PF-450: peptide having multiple activities (HRNLIILQRTIFI; Peptide with targeting and/or antimicrobial activity) |  |  |  |  | G B |  |  |  |  | E. faecalis (C) | MRSA (C) |  | S. pneumoniae (C) |  | 
PF-451: peptide having multiple activities (MVNYIIGSYMLYREQNNNEALRKFDITLAM; Peptide with targeting and/or antimicrobial activity) |  |  |  |  | G B |  |  |  |  | E. faecalis (C) | MRSA (C) | S. epidermidis (C) | S. pneumoniae (C) | E. coli (R) | 
PF-454: peptide having multiple activities (MSVFVPVTNIFMFIMSPIFNVNLLHFKVYI; Peptide with targeting and/or antimicrobial activity) |  |  |  |  | G B |  |  |  |  | E. faecalis (C) | MRSA (C) | S. epidermidis (C) | S. pneumoniae (R) | E. coli (R) | P. aeruginosa (H)
PF-458: peptide having multiple activities (ISLIIFIMLFVVALFKCITNYKHQS; Peptide with targeting and/or antimicrobial activity) |  |  |  |  | G B |  |  |  |  |  | MRSA (M) |  | S. pneumoniae (M) |  | P. aeruginosa (H)

From patent publication US20110039763A1, “TARGETED ANTIMICROBIAL MOIETIES” (C3 JIAN, INC., priority 2009, published 2011)
